Values of other authors in US20050147665A1, “Pharmaceutical and nutritional compositions” (Laxdale Limited, priority 1999, published 2005).

Conditions: patients with end-stage renal disease; lowering homocysteine by treatment with folic acid

In the case of `Nc1nc2ncc(CNc3ccc(C(=O)N[C@@H](CCC(=O)O)C(=O)O)cc3)nc2c(=O)[nH]1` [folic acid], the “elevations of DGLA and AA levels” value is listed as “significant in the cases of DGLA and AA” and the “elevations of EPA and DHA levels” value is listed as “not significant in the cases of EPA and DHA”.
